The nature of series [1]: Projected single-dose CL and Vss values in humans (allometric scaling of mouse, rat, dog, monkey IV PK). As to conditions: human, projected by allometric scaling from single-dose IV PK. On the procedure:
Allometric scaling for the prediction of human Clearance and Volume of Distribution was based on interspecies simple allometric scaling of mouse, rat, dog, and cynomolgus monkey intravenous pharmacokinetic parameters (Boxenbaum, J Pharmacokinet Biopharm 10:201-27, 1982). Prediction of human CL was performed by extrapolating pre-clinical species' plasma intravenous clearance. The ‘rule of exponents’ (Mahmood & Balian, Life Sci 59:579-85, 1996) was examined in this prediction, where it has been proposed that, when the exponent of simple allometry lies between […] and 0.99, a correction factor based on Maximum Life Span (MLP) of this species can be applied and, when the exponent of simple allometry is greater than 1.0, a correction factor based on Brain Weight (BrW) can be applied, or a protein binding correction can be applied when available. In a similar manner, simple allometric scaling was employed to predict human Volume of Distribution. This method has been used successfully for varied drugs (Ward & Smith, Drug Metab Dispos 32:612-19, 2004; McGinnity et al., Curr Drug Metab 8:463-79, 2007).

Series [2] has as its system bovine cardiac myofibrils. The experiment in a line: Myofibril assay (ATPase activity of skinned bovine cardiac myofibrils, PK/LDH-coupled). The class given is biochemical. Particulars: inhibition of steady-state ATPase of bovine cardiac myofibrils; CaCl2 for 50% or 75% activation. On the procedure:
To evaluate the effect of compounds on the ATPase activity of full-length cardiac myosin in the context of the native sarcomere, skinned myofibril assays were performed. Bovine cardiac myofibrils were obtained by homogenizing bovine cardiac left ventricular tissue in the presence of a detergent such as triton X-100. Such treatment removes membranes and a majority of the soluble cytoplasmic proteins but leaves intact the cardiac sarcomeric acto-myosin apparatus. Myofibril preparations retain the ability to hydrolyze ATP in a Ca^2+ regulated manner. ATPase activities of such myofibril preparations in the presence and absence of compounds were assayed at Ca^2+ concentrations activating to a defined fraction of the maximal rate (i.e., […], 75%). Small molecule agents were assessed for their ability to inhibit the steady-state ATPase activity of bovine cardiac myofibrils using pyruvate kinase and lactate dehydrogenase (PK/LDH)-coupled enzyme system. This assay regenerates myosin-produced ADP into ATP by oxidizing NADH, producing an absorbance change at 340 nm. Prior to testing small molecule agents, the bovine cardiac myofibrils were assessed for their calcium responsiveness and the calcium concentration that achieves either a 50% (pCa50) or 75% (pCa75) activation of the myofibril system was chosen as the final condition for assessing the inhibitory activity of the small molecule agents. All enzymatic activity was measured in a buffered solution containing 12 mM PIPES (piperazine-N,N′-bis(2-ethanesulfonic acid), 2 mM magnesium chloride at pH 6.8 (PM 12 buffer). Final assay conditions were 1 mg/mL of bovine cardiac myofibrils, 4 U/mL pyruvate kinase, 6 U/mL lactate dehydrogenase, 50 μM ATP, 0.1 mg/mL BSA (bovine serum albumin), 10 ppm antifoam, 1 mM DTT, 0.5 mM NADH, 1.5 mM PEP, 0.6 mM EGTA, and an amount of CaCl2 sufficient to achieve either 50% or 75% activation of the myofibril ATPase activity. Results for compounds tested are provided in Table A. Compounds tested were prepared in accordance with the synthetic procedures described herein.

The next series deals with T1, CYP3A4 (Homo sapiens, UniProt P08684).
T1 construct: Pooled human microsomes and selective CYP probe substrates were used; from tissue; host or cells: pooled human liver microsomes
The experiment in a line: Time-dependent inhibition of CYP3A4 in human liver microsomes (testosterone and midazolam probes). The series is classed as in vitro ADME. As to conditions: for (% Activity NADPH T0)/(% Activity NADPH T30): fold change. Here is the method: An assessment of the time-dependent Inhibitory Potential of the test compounds against Principal Human Cytochrome P450 Isozymes using Human Liver Microsomes was also carried out using standard methods (Grimm et al, Drug Metab. Dispos., July; 37(7):1355-70. doi: 10.1124/dmd.109.026716, 2009). Pooled human microsomes and selective CYP probe substrates were used for in vitro assessment of test compounds at 25 and 50 μM as time-dependent inhibitors of […] human hepatic cytochrome P450 isozymes (CYP1A2, 2B6, 2C9, 2C19, 2D6, and 3A4). LC-MS/MS was used to quantify metabolite formation. The inhibition of each P450 enzyme in human liver microsomes was measured as the percentage decrease in the activity of marker metabolite formation as measured by LC-MS/MS compared to non-inhibited controls (=100% activity) at time zero and after 30 minutes incubation. The occurrence of any time dependent inhibition was then expressed as the fold change in enzyme activity at time zero relative to the activity after 30 minutes incubation.
(In general: Microsomes from liver hold many membrane-bound enzymes, among them those of drug oxidation.)

Series [3] in a line: Dog single dose pharmacokinetics. The series is classed as in vivo, beagle dogs. Particulars: male, beagle, plasma, IV, read-out: t½ (converted). On the procedure:
Non-naïve male beagle dogs (8 months-3 years of age, body weight 8-13 kg) were used in this study. All animals for IV administration had free access to food and water; all animals for PO were fasted overnight prior to dosing and were fed approximately 6 hours after dosing. For the animals in PO group, pentagastrin (6.0 μg/kg, i.m.) was administrated 20 minutes before dosing PO formulation and 1.5 hours after the first pentagastrin dosing. The dosing volume was 0.024 mL/kg, the concentration was 250 μg/mL in DMSO/1 N NaOH/PBS. 10 mL of 0.001 N HCl was used to wash the gavage catheter for each animal. The IV dose solution was prepared in 10% DMA/50% PG/40% HPβCD solution (40% w/v aqueous HPβCD) at a concentration of 1.0 mg/mL. The oral dose suspension was prepared by suspending the compound in 0.5% HPMC/0.1% Tween 80 in distilled water at a concentration of 0.2 mg/mL. Concentrations of IV and PO doses were measured at the end of the study. PK parameters were calculated using the nominal dose values if the measured values were within 20% of the nominal values. Blood samples were collected by venipuncture of peripheral veins except the dosing vein at pre-dose, 5 15, 30 min, 1, 2, 4, 6, 8, 24 and 48 h post-dose. Blood samples were centrifuged and resultant plasma was frozen for bioanalysis. Plasma samples were stored at −80° C. before analysis. Plasma samples were analyzed for compound concentrations using the LC/MS/MS method. Briefly, a 50 μL aliquot of each plasma sample was mixed with 100 μL of acetonitrile that contained an internal standard. The mixture was vortexed and centrifuged. Ten (10) μL of the resulting solution was injected onto a reverse-phase C18 column and the resultant peaks detected on a LC/MS/MS equipped with a turbo ionspray ionization source. Sample concentrations below the limit of quantification (BLQ) were treated as zero for PK calculations. PK parameters were estimated from individual animals using noncompartmental analysis of the concentration-time data (Phoenix WinNonLin software, version 64; Pharsight, Mountain View, CA). The elimination rate constant (k) was calculated as the absolute value of the slope of the linear regression of logarithm (log) of the concentration versus time for the last three data points of the concentration-time profiles. Apparent elimination half-life (t1/2) values were calculated as ln(2)/k. Area under the concentration-time curve (AUC) values were estimated using linear trapezoidal method. AUCt values were calculated from the dosing time to the last measurable concentration. AUC∞ values were calculated as the sum of the corresponding AUCt and the ratio of the last detectable concentration divided by k. Plasma clearance (CL) was calculated from Dose/AUC∞. Mean resident time extrapolated to infinity (MRT∞) was estimated by moment analysis. Vss was calculated from MRT∞×CL. Maximum concentration (Cmax) and time to reach Cmax (tmax) were recorded as observed. As this was a cross-over study, bioavailability was calculated dAUC∞,po/dAUC∞,iv×100% where dAUC was the dose normalized AUC value from the same animal given IV and PO dose. Data for compounds tested are provided in Table D. Compounds tested were prepared in accordance with the synthetic procedures described herein.

Bounds are passed on as bounds.

T1 sequence (P08684 whole entry): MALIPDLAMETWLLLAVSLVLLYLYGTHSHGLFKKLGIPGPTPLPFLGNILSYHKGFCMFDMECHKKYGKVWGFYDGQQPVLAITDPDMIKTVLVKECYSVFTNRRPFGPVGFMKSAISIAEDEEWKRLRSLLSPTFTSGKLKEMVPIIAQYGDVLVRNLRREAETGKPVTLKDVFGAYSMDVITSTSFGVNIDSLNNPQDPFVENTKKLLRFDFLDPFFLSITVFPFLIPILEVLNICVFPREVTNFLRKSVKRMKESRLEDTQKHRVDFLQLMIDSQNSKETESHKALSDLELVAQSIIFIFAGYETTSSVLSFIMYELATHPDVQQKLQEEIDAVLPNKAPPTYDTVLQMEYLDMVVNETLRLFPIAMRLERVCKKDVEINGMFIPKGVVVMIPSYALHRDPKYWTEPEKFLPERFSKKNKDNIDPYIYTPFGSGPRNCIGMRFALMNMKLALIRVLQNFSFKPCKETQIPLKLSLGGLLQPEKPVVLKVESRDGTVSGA

Regarding `O=C1[C@H](C2COC2)N(Cc2ccc(C(F)(F)F)cc2)C(=O)CN1c1ncc(Cl)cc1F` [Comparator C, (S)-1-(5-chloro-3-fluoropyridin-2-yl)-3-(oxetan-3-yl)-4-(4-(trifluoromethyl)benzyl)piperazine-2,5-dione, reference compound], in series [1], the “Projected CL” value stood at 3.9 mL/min/kg. In addition, in series [1], the “Projected Vss” value was determined as 13.9 L/kg. Besides, in series [1], the “Projected t½” value was determined as 41 h. For the same compound, the “CDMF IC15” value in series [2] was 1100 nM. Also, the “(% Activity NADPH T0)/(% Activity NADPH T30)” value was determined as 1.6 at CYP3A4 (CYP3A4-M (midazolam probe substrate), 25 μM); 1.7 at CYP3A4 (CYP3A4-M (midazolam probe substrate), 50 μM); 1.8 at CYP3A4 (CYP3A4-T (testosterone probe substrate), 25 μM); 1.8 on CYP3A4 (CYP3A4-T (testosterone probe substrate), 50 μM). At CYP3A4 (both midazolam and testosterone probes, 25 and 50 μM), the “change in fold activity of 3A4 (time dependent inhibition)” value is above 1.5 fold. Moreover, the half-life in series [3] was 14.7 h.

(Values after US12286437B2, “Cardiac sarcomere inhibitors” (Cytokinetics, Inc., priority 2021, dated 2025).)
